# Results as given in publication PMC6272137, “Synthesis and Evaluation of Paeonol Derivatives as Potential Multifunctional Agents for the Treatment of Alzheimer’s Disease” (Molecules, 2015).
# Read-outs that look alike come from different tables or passages of the source.
# Assays:
# AChE from electric eel = target: T1, AChE from electric eel (Electrophorus electricus, UniProt O42275); assay: biochemical; settings: n = 3, pH 8.0, 37 °C, read-out: AChE Inhibition (IC50)
# T1 construct: purchased Sigma Aldrich
# Experimental: Acetylcholinesterase (AChE, E.C.3.1.1.7, from the electric eel), 5,5'-dithiobis-(2-nitrobenzoic acid) (DTNB), acetylthiocholine iodide (ATCI) and donepezil hydrochloride were purchased from Sigma Aldrich. […] Paeonol and 5a–5d were dissolved in DMSO and then diluted by phosphate buffer (pH 8.0) to seven different concentrations in the range of 10^−3–10^−9 M. AChE solutions were prepared in double-distilled water to 2.0 units/mL in 2 mL aliquots. The assay medium contained phosphate buffer, pH 8.0 (1 mL), 50 µL of 0.01 M DTNB, 10 µL of enzyme and 50 µL of acetylthiocholine iodide. Test compounds were added to assay solution and preincubated at 37 °C with enzyme for 15 min, followed by the addition of substrate. Activity was determined by measuring the increase in absorbance at 412 nm at 1 min intervals at 37 ± 0.2 °C. For determining the blank value, 50 µL buffer replaced the AChE solution.
# [1] = DPPH free radical scavenging assay; settings: read-out: DPPH Scavenging (IC50), concentration causing 50% loss of initial DPPH free radical, mean ± SD, n = 3, 60 min, methanol
# Experimental: Based on their interaction with DPPH (2,2-diphenyl-1-picrylhydrazyl) free radical, antioxidant activities of the new paeonol derivatives were screened. […] Paeonol is used as the positive control.
# The stable radical DPPH was used as a reagent in this spectrophotometric assay. […] After a 60 min incubation period at room temperature in the dark, the absorbance was read at 517 nm against the corresponding blank. Inhibition of free radical DPPH in percent (I%) was calculated using the following Equation (1): (1) I%=(Ablank−Asample/Ablank)×100 Where Ablank is the absorbance of DPPH solution (control solution) against the blank, and Asample is the absorbance of the tested compound against the blank. Concentrations caused 50% loss of the initial DPPH free radical scavenging.
# PC12 cells = assay: Protection of PC12 cells against H2O2-induced cell death (MTT assay); settings: then 150 μM H2O2 for 5 h; for cell morphology (phase-contrast microscopy): 40 µM compound, 3 h preincubation
# T1 sequence (O42275 24-633): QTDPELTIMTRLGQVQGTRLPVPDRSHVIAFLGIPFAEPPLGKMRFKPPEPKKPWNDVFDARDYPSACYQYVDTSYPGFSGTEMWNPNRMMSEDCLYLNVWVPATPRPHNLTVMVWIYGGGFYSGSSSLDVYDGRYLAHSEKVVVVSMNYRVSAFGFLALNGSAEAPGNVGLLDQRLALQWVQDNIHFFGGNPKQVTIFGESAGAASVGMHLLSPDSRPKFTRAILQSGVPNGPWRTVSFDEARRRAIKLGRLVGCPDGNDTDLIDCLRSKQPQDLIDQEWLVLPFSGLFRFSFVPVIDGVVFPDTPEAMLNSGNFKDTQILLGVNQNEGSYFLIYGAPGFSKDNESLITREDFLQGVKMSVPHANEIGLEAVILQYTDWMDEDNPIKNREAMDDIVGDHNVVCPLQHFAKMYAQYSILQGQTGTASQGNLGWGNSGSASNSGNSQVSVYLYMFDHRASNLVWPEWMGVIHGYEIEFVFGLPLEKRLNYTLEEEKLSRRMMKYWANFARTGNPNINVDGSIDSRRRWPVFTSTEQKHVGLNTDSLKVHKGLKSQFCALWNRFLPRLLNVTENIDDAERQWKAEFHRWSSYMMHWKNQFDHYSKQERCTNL
compound,measurement,setting,value
"COc1ccc(C(=O)CN2CCN(Cc3ccc([N+](=O)[O-])cc3)CC2)c(O)c1 [5c, 1-(2-Hydroxy-4-methoxyphenyl)-2-(4-(4-nitrobenzyl)piperazin-1-yl) ethanone]",IC50,AChE from electric eel,7040 ± 32 nM
same,IC50,[1],192 ± 8.06 µM
"COc1ccc(C(=O)CN2CCN(Cc3ccc(Cl)cc3)CC2)c(O)c1 [5d, 2-(4-(4-Chlorobenzyl)piperazin-1-yl)-1-(2-hydroxy-4-methoxypheny) ethanone]",IC50,AChE from electric eel,2630 ± 153 nM
same,IC50,[1],187 ± 13.7 µM
"COc1ccc(C(=O)CN2CCN(Cc3ccccc3)CC2)c(O)c1 [5a, 2-(4-Benzylpiperazin-1-yl)-1-(2-hydroxy-4-methoxyphenyl) ethanone]",IC50,AChE from electric eel,1590 ± 11 nM
same,IC50,[1],143 ± 8.83 µM
"COc1ccc(C(=O)CN2CCN(Cc3ccc(C)cc3)CC2)c(O)c1 [5b, 1-(2-Hydroxy-4-methoxyphenyl)-2-(4-(4-methylbenzyl)piperazin-1-yl) ethanone]",cell morphology (phase-contrast microscopy),PC12 cells,maintained normal cell morphology
same,IC50,AChE from electric eel,610 ± 9 nM
same,IC50,[1],158 ± 6.88 µM
"COc1ccc(C(C)=O)c(O)c1 [Paeonol, 2-hydroxy-4-methoxy-acetophenone]",protective effect on PC12 cells (MTT),"PC12 cells; 5 μM compound, 3 h pretreatment",did not cause any apparent effects
same,cell morphology (phase-contrast microscopy),PC12 cells,maintained normal cell morphology
same,"protective effect (cell viability, MTT)","PC12 cells; 40 μM compound, 3 h pretreatment, control cells = 100%",58.9%
same,IC50,[1],310 ± 5.41 µM
same,IC50,[1]; listed as paeonol,310 µM
